Experimental data as given in patent US20240208912A1 (Mirati Therapeutics, Inc., priority 2021, published 2024).

target: T1, PRMT5/MEP50 complex (Homo sapiens, UniProt O14744); assay: PRMT5:MEP50 HotSpot Assay (full-length histone H2A substrate, plus and minus MTA); type: biochemical; settings: IC50 + 2 μM MTA, in the presence of 2 μM MTA
T1 construct: purchased Reaction Biology Corporation
Procedure: The PRMT5 inhibitory activity of compounds of the present invention was determined using either a PRMT5:MEP50 FlashPlate Assay (Reaction Biology Corporation) or a PRMT5:MEP50 HotSpot Assay (Reaction Biology Corporation).
The assay uses recombinant full-length hi stone H2A as the PRMT5 substrate. […] The reaction was stopped and transferred to filter paper for detection. The amount of tritiated H2A in each sample was determined using a scintillation counter.

T1 sequence (O14744 2-637 limits assumed): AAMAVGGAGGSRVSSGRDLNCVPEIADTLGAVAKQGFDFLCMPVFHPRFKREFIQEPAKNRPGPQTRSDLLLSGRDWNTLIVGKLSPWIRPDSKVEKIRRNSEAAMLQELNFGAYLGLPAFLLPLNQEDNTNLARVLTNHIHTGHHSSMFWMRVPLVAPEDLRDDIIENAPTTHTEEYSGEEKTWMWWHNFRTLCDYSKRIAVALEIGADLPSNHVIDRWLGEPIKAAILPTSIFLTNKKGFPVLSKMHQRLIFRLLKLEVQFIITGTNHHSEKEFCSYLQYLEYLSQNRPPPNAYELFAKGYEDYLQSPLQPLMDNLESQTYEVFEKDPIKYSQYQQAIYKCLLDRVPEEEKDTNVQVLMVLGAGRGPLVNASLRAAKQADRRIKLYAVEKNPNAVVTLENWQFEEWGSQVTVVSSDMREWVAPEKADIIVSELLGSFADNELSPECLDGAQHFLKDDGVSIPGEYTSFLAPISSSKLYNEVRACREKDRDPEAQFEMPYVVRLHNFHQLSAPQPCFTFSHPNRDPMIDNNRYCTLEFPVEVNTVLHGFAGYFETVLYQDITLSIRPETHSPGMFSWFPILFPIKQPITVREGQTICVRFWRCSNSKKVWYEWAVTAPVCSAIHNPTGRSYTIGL
T1 sequence (Q9BQA1 2-342 partner limits assumed): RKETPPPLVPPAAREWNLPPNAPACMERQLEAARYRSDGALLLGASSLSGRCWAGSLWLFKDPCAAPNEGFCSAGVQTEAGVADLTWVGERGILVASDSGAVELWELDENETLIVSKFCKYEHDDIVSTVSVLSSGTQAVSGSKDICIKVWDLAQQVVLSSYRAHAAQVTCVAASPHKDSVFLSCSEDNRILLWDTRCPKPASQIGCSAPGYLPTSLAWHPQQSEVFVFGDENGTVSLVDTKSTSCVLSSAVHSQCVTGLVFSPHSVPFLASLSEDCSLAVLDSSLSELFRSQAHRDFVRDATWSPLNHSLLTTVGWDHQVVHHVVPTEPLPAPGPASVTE

IC50 [nM] | SMILES
> 10000 | Cn1ncc(-c2ccc3c(c2)C(C)(N)CNC3=O)c1-c1sc2ccccc2c1C#N (stereo not drawn) [Example 20-7, 2-(4-(4-amino-4-methyl-1-oxo-1,2,3,4-tetrahydroisoquinolin-6-yl)-1-methyl-1H-pyrazol-5-yl)benzo[b]thiophene-3-carbonitrile]
4080 | Cn1ncc(-c2ccc3c(=O)[nH]nc(CN)c3c2)c1N1CCCCC1C#N (stereo not drawn) [Example 4-289, 1-(4-(4-(aminomethyl)-1-oxo-1,2-dihydrophthalazin-6-yl)-1-methyl-1H-pyrazol-5-yl)piperidine-2-carbonitrile]
1030 | Cn1ncc(-c2ccc3c(c2)C(CN)NC3=O)c1-c1sc2ccccc2c1C#N (stereo not drawn) [Example 20-4, 2-(4-(3-(aminomethyl)-1-oxoisoindolin-5-yl)-1-methyl-1H-pyrazol-5-yl)benzo[b]thiophene-3-carbonitrile]
1370 | Cc1c(F)c(-c2c(-c3cc(Cl)c4c(=O)[nH]nc(CN)c4c3)cnn2C)c(C#N)c2cc(Cl)cnc12 (single isomer, unassigned) [Example 16-109, (P)-6-(4-(4-(aminomethyl)-8-chloro-1-oxo-1,2-dihydrophthalazin-6-yl)-1-methyl-1H-pyrazol-5-yl)-3-chloro-7-fluoro-8-methylquinoline-5-carbonitrile]
737 | Cn1nnc(-c2ccc3c(=O)[nH]nc(CN)c3c2)c1-c1sc2ccccc2c1C#N [Example 4-291, 2-(4-(4-(aminomethyl)-1-oxo-1,2-dihydrophthalazin-6-yl)-1-methy1-1H-1,2,3-triazol-5-yl)benzo[b]thiophene-3-carbonitrile]
347 | Cn1ncc(-c2ccc3c(=O)[nH]nc(CN)c3c2)c1-c1c(Cl)cc2ccccc2c1C#N (single isomer, unassigned) [Example 16-127, (P)-2-(4-(4-(aminomethyl)-1-oxo-1,2-dihydrophthalazin-6-yl)-1-methyl-1H-pyrazol-5-yl)-3-chloro-1-naphthonitrile]
200 | C[C@H](N)c1n[nH]c(=O)c2ccc(-c3cnn(C)c3-c3ccc4ccccc4c3C#N)nc12 [Example 20-2]
> 10000 | Cn1ncc(-c2ccc3c(=O)[nH]nc([C@H](N)C(F)F)c3c2)c1-c1ccc2ccccc2c1C#N [Example 9-6, 2-[4-[4-[(1S)-1-amino-2,2-difluoro-ethyl]-1-oxo-2H-phthalazin-6-yl]-2-methyl-pyrazol-3-yl]naphthalene-1-carbonitrile]
51 | CCOc1cc(-c2cnn(C)c2-c2c(F)c(C)c3ncc(Cl)cc3c2C#N)cc2c(CN)n[nH]c(=O)c12 (single isomer, unassigned) [Example 16-112, (M)-6-(4-(4-(aminomethyl)-8-ethoxy-1-oxo-1,2-dihydrophthalazin-6-yl)-1-methyl-1H-pyrazol-5-yl)-3-chloro-7-fluoro-8-methylquinoline-5-carbonitrile]
2380 | Cc1cc2ccccc2c(C#N)c1-c1c(-c2ccc3c(=O)[nH]nc(CN)c3c2)cnn1C (single isomer, unassigned) [Example 12-15A]
2250 | Cc1ncn(-c2ccc3c(=O)[nH]nc(CN)c3c2)c1-c1sc2ccccc2c1C#N [Example 20-6, 2-[3-[4-(aminomethyl)-1-oxo-2H-phthalazin-6-yl]-5-methyl-imidazol-4-yl]benzothiophene-3-carbonitrile]
3820 | N#Cc1ccccc1-n1c(-c2ccc3c(=O)[nH]nc(CN)c3c2)cnc1CO [Example 4-194, 2-(5-(4-(aminomethyl)-1-oxo-1,2-dihydrophthalazin-6-yl)-2-(hydroxymethyl)-1H-imidazol-1-yl)benzonitrile]
1000 | Cn1ncc(-c2ccc3c(=O)[nH]nc(CN)c3c2)c1-c1ccc2n1C(=O)CCC2 [Example 4-278, 4-(aminomethyl)-6-(1-methyl-5-(5-oxo-5,6,7,8-tetrahydroindolizin-3-yl)-1H-pyrazol-4-yl)phthalazin-1(2H)-one]
477 | Cn1ncc(-c2ccc3c(=O)[nH]nc(CN)c3c2)c1-c1c(C#N)cc2[nH]cnc2c1Cl (atropisomer, axis not shown; (P)) [Example 16-116, (P)-5-(4-(4-(aminomethyl)-1-oxo-1,2-dihydrophthalazin-6-yl)-1-methyl-1H-pyrazol-5-yl)-4-chloro-1H-benzo[d]imidazole-6-carbonitrile]
70 | Cn1ncc(-c2ccc3c(=O)[nH]nc(CN)c3c2)c1-c1c(Cl)c(Cl)cc(OC2CC2)c1C#N (single isomer, unassigned) [Example 16-124, (M)-2-(4-(4-(aminomethyl)-1-oxo-1,2-dihydrophthalazin-6-yl)-1-methyl-1H-pyrazol-5-yl)-3,4-dichloro-6-cyclopropoxybenzonitrile]
92 | Cn1ncc(-c2ccc3c(=O)[nH]nc(CN)c3c2)c1-c1c(C(F)F)cc2ccccc2c1C#N (single isomer, unassigned) [Example 16-130, (M)-2-(4-(4-(aminomethyl)-1-oxo-1,2-dihydrophthalazin-6-yl)-1-methyl-1H-pyrazol-5-yl)-3-(difluoromethyl)-1-naphthonitrile]
2310 | Cn1ncc(-c2cc3c(CN)n[nH]c(=O)c3s2)c1-c1ccc2ccccc2c1C#N [Example 17-7, 2-(4-(4-(aminomethyl)-7-oxo-6,7-dihydrothieno[2,3-d]pyridazin-2-yl)-1-methyl-1H-pyrazol-5-yl)-1-naphthonitrile]
4000 | Cn1ncc(-c2ccc3c(=O)[nH]nc(CN)c3c2)c1-c1c(Cl)c(Cl)cc(OC2CC2)c1C#N (single isomer, unassigned) [Example 16-123, (P)-2-(4-(4-(aminomethyl)-1-oxo-1,2-dihydrophthalazin-6-yl)-1-methyl-1H-pyrazol-5-yl)-3,4-dichloro-6-cyclopropoxybenzonitrile]
168 | Cn1ncc(-c2ccc3c(=O)[nH]nc(CN)c3c2)c1N1CCCC1C#N (stereo not drawn) [Example 4-290, 1-(4-(4-(aminomethyl)-1-oxo-1,2-dihydrophthalazin-6-yl)-1-methyl-1H-pyrazol-5-yl)pyrrolidine-2-carbonitrile]
7510 | COc1nnc(CN)c2cc(-c3cnn(C)c3-c3sc4ccccc4c3C#N)ccc12 [Example 17-6]
347 | Cn1ncc(-c2ccc3c(=O)[nH]nc(CN)c3c2)c1-c1c(Cl)ccc(OC2CC2)c1C#N (atropisomer, axis not shown; (P)) [Example 16-131, (P)-2-(4-(4-(aminomethyl)-1-oxo-1,2-dihydrophthalazin-6-yl)-1-methyl-1H-pyrazol-5-yl)-3-chloro-6-cyclopropoxybenzonitrile]
635 | Cn1ncc(-c2ccc3c(c2)C(CCN)NC3=O)c1-c1sc2ccccc2c1C#N (stereo not drawn) [Example 20-5, 2-[4-[3-(2-aminoethyl)-1-oxo-isoindolin-5-yl]-2-methyl-pyrazol-3-yl]benzothiophene-3-carbonitrile]
1270 | Cn1ncc(-c2cc(C(=O)C(F)F)c3c(=O)[nH]nc(CN)c3c2)c1-c1sc2ccccc2c1C#N [Example 15-9, 2-(4-(4-(aminomethyl)-8-(2,2-difluoro-acetyl)-1-oxo-1,2-dihydrophthalazin-6-yl)--methyl-1H-pyrazol-5-yl)benzo[b]-thiophene-3-carbonitrile]
2950 | Cn1ncc(-c2ccc3c(=O)[nH]nc(CN)c3c2)c1-c1c(F)c(Cl)cc(CC2CC2)c1C#N (single isomer, unassigned) [Example 16-125, (P)-2-(4-(4-(aminomethyl)-1-oxo-1,2-dihydrophthalazin-6-yl)-1-methyl-1H-pyrazol-5-yl)-4-chloro-6-(cyclopropylmethyl)-3-fluorobenzonitrile]
65 | Cn1ncc(-c2ccc3c(=O)[nH]nc(CN)c3c2)c1-c1c(Cl)cc2ccccc2c1C#N (single isomer, unassigned) [Example 16-128, (M)-2-(4-(4-(aminomethyl)-1-oxo-1,2-dihydrophthalazin-6-yl)-1-methyl-1H-pyrazol-5-yl)-3-chloro-1-naphthonitrile]
112 | Cc1c(Cl)cc(OC2CC2)c(C#N)c1-c1c(-c2ccc3c(=O)[nH]nc(CN)c3c2)cnn1C (single isomer, unassigned) [Example 16-122, (P)-2-(4-(4-(aminomethyl)-1-oxo-1,2-dihydrophthalazin-6-yl)-1-methyl-1H-pyrazol-5-yl)-4-chloro-6-cyclopropoxy-3-methylbenzonitrile]
758 | Cn1ncc(-c2ccc3c(=O)[nH]nc(CN)c3c2)c1-c1c(F)cnc(OC2CC2)c1C#N (atropisomer, axis not shown; (P)) [Example 16-135, (P)-4-(4-(4-(aminomethyl)-1-oxo-1,2-dihydrophthalazin-6-yl)-1-methyl-1H-pyrazol-5-yl)-2-cyclopropoxy-5-fluoronicotinonitrile]
5250 | Cn1ncc(-c2ccc3c(=O)[nH]nc(CN)c3c2)c1-c1c(C(F)F)cc2ccccc2c1C#N (single isomer, unassigned) [Example 16-129, (P)-2-(4-(4-(aminomethyl)-1-oxo-1,2-dihydrophthalazin-6-yl)-1-methyl-1H-pyrazol-5-yl)-3-(difluoromethyl)-1-naphthonitrile]

same assay, conditions: in the absence of MTA, read-out: IC50

IC50 [nM] | SMILES
> 10000 | Cn1ncc(-c2ccc3c(=O)[nH]nc(CN)c3c2)c1-c1ccccc1C#N [Example 4-100, 2-(4-(4-(aminomethyl)-1-oxo-1,2-dihydrophthalazin-6-yl)-1-methyl-1H-pyrazol-5-yl)benzonitrile]

same assay, conditions: read-out: IC50 + 2 μM MTA, in the presence of 2 μM MTA

IC50 [nM] | SMILES
> 10000 | Cn1ncc(-c2ccc3c(=O)[nH]nc(CN)c3c2)c1-c1c(C2COC2)ccc2c1COC2 (atropisomer, axis not shown; (M)) [Example 16-138, (M)-4-(aminomethyl)-6-(1-methyl-5-(5-(oxetan-3-yl)-1,3-dihydroisobenzofuran-4-yl)-1H-pyrazol-4-yl)phthalazin-1(2H)-one]
